Laboratory results: PubChem BioAssay AID246 (DTP/NCI, 2004)
Values joined by “and” are separate entries in the source; they are usually repeats but may differ in a detail not shown here. Identical values can stand only once. Inconclusive results and toxic doses are left out.

Test system: BDF1 mice, P1081 chloroleukemia ip, survival T/C
Assay: NCI In Vivo Anticancer Drug Screen. Data for tumor model P1081 Chloroleukemia (intraperitoneal) in B6D2F1 (BDF1) mice
Details: endpoint: mean survival time, higher = longer survival
Protocol: The antitumor activity of compounds was measured in mice bearing transplantable tumors. Survival or tumor size were measured and the results are expressed as the measurement made in the treated group (T) divided by the measurement made in the vehicle treated control group (C). The tumor model used in this assay is P1081 Chloroleukemia (intraperitoneal) in B6D2F1 (BDF1) mice

[1] = dose: 20.0 mg/kg/injection, schedule: Q01DX010 (ip), vehicle: saline
[2] = dose: 40.0 mg/kg/injection, schedule: Q01DX010 (ip), vehicle: saline
[3] = dose: 6.25 mg/kg/injection, schedule: Q01DX Z (ip), vehicle: carboxymethylcellulose (CMC)
[4] = dose: 12.5 mg/kg/injection, schedule: Q01DX Z (ip), vehicle: carboxymethylcellulose (CMC)
[5] = dose: 6.25 mg/kg/injection, schedule: Q01DX010 (ip), vehicle: saline
[6] = dose: 12.5 mg/kg/injection, schedule: Q01DX010 (ip), vehicle: saline
[7] = dose: 25.0 mg/kg/injection, schedule: Q01DX010 (ip), vehicle: saline
[8] = dose: 3.1 mg/kg/injection, schedule: Q01DX Z (ip), vehicle: carboxymethylcellulose (CMC)
[9] = dose: 25.0 mg/kg/injection, schedule: Q01DX Z (ip), vehicle: carboxymethylcellulose (CMC)
[10] = dose: 62.5 mg/kg/injection, schedule: Q01DX Z (ip), vehicle: carboxymethylcellulose (CMC)
[11] = dose: 125.0 mg/kg/injection, schedule: Q01DX Z (ip), vehicle: carboxymethylcellulose (CMC)
[12] = dose: 250.0 mg/kg/injection, schedule: Q01DX Z (ip), vehicle: carboxymethylcellulose (CMC)

Structure (SMILES): CN(C)c1ccc(/C=C\c2ccnc3ccccc23)cc1
- T/C (dose: 0.4 mg/kg/injection, schedule: Q01DX Z (ip), vehicle: water): 87 % of control
- T/C (dose: 0.8 mg/kg/injection, schedule: Q01DX Z (ip), vehicle: water): 99 % of control
- T/C (dose: 1.6 mg/kg/injection, schedule: Q01DX Z (ip), vehicle: water): 108 % of control and 122 % of control
- T/C (dose: 3.1 mg/kg/injection, schedule: Q01DX Z (ip), vehicle: water): 99 % of control and 105 % of control
- T/C (dose: 6.25 mg/kg/injection, schedule: Q01DX Z (ip), vehicle: water): 90 % of control and 94 % of control
- T/C (dose: 6.3 mg/kg/injection, schedule: Q01DX Z (ip), vehicle: water): 118 % of control and 120 % of control
- T/C (dose: 12.5 mg/kg/injection, schedule: Q01DX Z (ip), vehicle: water): 112 % of control and 94 % of control and 105 % of control
- T/C (dose: 25.0 mg/kg/injection, schedule: Q01DX Z (ip), vehicle: water): 118 % of control and 88 % of control and 90 % of control

Structure (SMILES): C[C@]12CC[C@H](OC3OC(CO)C(O)C(O)C3O)C[C@H]1CC[C@@H]1[C@@H]2CC[C@]2(C)[C@@H](C3=CCOC3=O)CC[C@]12O (stereo partly specified)
- T/C (dose: 0.5 mg/kg/injection, schedule: Q01DX Z (ip), vehicle: saline): 94 % of control
- T/C (dose: 1.0 mg/kg/injection, schedule: Q01DX Z (ip), vehicle: saline): 96 % of control
- T/C (dose: 31.0 micrograms/kg/injection, schedule: Q01DX Z (ip), vehicle: saline): 101 % of control
- T/C (dose: 63.0 micrograms/kg/injection, schedule: Q01DX Z (ip), vehicle: saline): 98 % of control
- T/C (dose: 125.0 micrograms/kg/injection, schedule: Q01DX Z (ip), vehicle: saline): 104 % of control
- T/C (dose: 250.0 micrograms/kg/injection, schedule: Q01DX Z (ip), vehicle: saline): 104 % of control
- T/C (dose: 500.0 micrograms/kg/injection, schedule: Q01DX Z (ip), vehicle: saline): 110 % of control

Structure (SMILES): O=c1[nH]cc(F)c(=O)[nH]1
- T/C (dose: 1.56 mg/kg/injection, schedule: Q01DX Z (ip), vehicle: saline): 99 % of control
- T/C (dose: 10.0 mg/kg/injection, schedule: Q01DX010 (ip), vehicle: saline): 161 % of control and 165 % of control
- T/C (dose: 12.5 mg/kg/injection, schedule: Q01DX Z (ip), vehicle: saline): 150 % of control
- T/C [1]: 200 % of control and 230 % of control
- T/C [2]: 110 % of control and 94 % of control
- T/C (dose: 50.0 mg/kg/injection, schedule: Q01DX Z (ip), vehicle: saline): 108 % of control
- T/C (dose: 100.0 mg/kg/injection, schedule: Q01DX Z (ip), vehicle: saline): 96 % of control

Structure (SMILES): CCCSc1ncnc2nc[nH]c12
- T/C [3]: 111 % of control
- T/C [4]: 122 % of control
- T/C (dose: 31.3 mg/kg/injection, schedule: Q01DX010 (ip), vehicle: saline): 105 % of control and 100 % of control
- T/C (dose: 62.5 mg/kg/injection, schedule: Q01DX010 (ip), vehicle: saline): 105 % of control and 111 % of control
- T/C (dose: 125.0 mg/kg/injection, schedule: Q01DX010 (ip), vehicle: saline): 105 % of control and 111 % of control
- T/C (dose: 250.0 mg/kg/injection, schedule: Q01DX010 (ip), vehicle: saline): 122 % of control and 100 % of control

Structure (SMILES): CS(=O)(=O)OCCCCOS(C)(=O)=O
- T/C (dose: 0.78 mg/kg/injection, schedule: Q01DX Z (ip), vehicle: methylcellulose (MC)): 89 % of control
- T/C [5]: 110 % of control
- T/C [6]: 86 % of control and 100 % of control
- T/C [7]: 86 % of control and 100 % of control
- T/C (dose: 25.0 mg/kg/injection, schedule: Q01DX Z (ip), vehicle: methylcellulose (MC)): 95 % of control
- T/C (dose: 50.0 mg/kg/injection, schedule: Q01DX010 (ip), vehicle: saline): 90 % of control and 100 % of control
- T/C (dose: 50.0 mg/kg/injection, schedule: Q01DX Z (ip), vehicle: methylcellulose (MC)): 92 % of control

Structure (SMILES): COc1cc(-c2ccc(Nc3ccccc3C(=O)O)c(OC)c2)ccc1Nc1ccccc1C(=O)O
- T/C [6]: 116 % of control
- T/C [7]: 122 % of control

Structure (SMILES): CSc1ncnc2c1ncn2C1OC(CO)C(O)C1O (stereo unspecified)
- T/C [8]: 105 % of control and 92 % of control
- T/C [3]: 102 % of control
- T/C [4]: 105 % of control and 90 % of control
- T/C [9]: 105 % of control and 98 % of control

Structure (SMILES): O=CCC(O)C(O)C(O)CO (stereo unspecified)
- T/C (dose: 31.25 mg/kg/injection, schedule: Q01DX Z (ip), vehicle: carboxymethylcellulose (CMC)): 95 % of control
- T/C [10]: 88 % of control
- T/C [11]: 88 % of control
- T/C [12]: 97 % of control

Structure (SMILES): OCC1OC(n2cnc3c(=S)nc[nH]c32)C(O)C1O (stereo unspecified)
- T/C [1]: 110 % of control and 105 % of control
- T/C [2]: 110 % of control and 100 % of control
- T/C [10]: 160 % of control
- T/C (dose: 80.0 mg/kg/injection, schedule: Q01DX010 (ip), vehicle: saline): 115 % of control and 120 % of control
- T/C [11]: 158 % of control
- T/C (dose: 160.0 mg/kg/injection, schedule: Q01DX010 (ip), vehicle: saline): 120 % of control
- T/C [12]: 104 % of control
- T/C (dose: 500.0 mg/kg/injection, schedule: Q01DX Z (ip), vehicle: carboxymethylcellulose (CMC)): 94 % of control

Structure (SMILES): CC(=O)OCC1OC(n2ncc(=O)[nH]c2=O)C(OC(C)=O)C1OC(C)=O (stereo unspecified)
- T/C (dose: 118.0 mg/kg/injection, schedule: Q01DX Z (ip), vehicle: other): 100 % of control
- T/C (dose: 235.0 mg/kg/injection, schedule: Q01DX Z (ip), vehicle: other): 93 % of control
- T/C (dose: 468.75 mg/kg/injection, schedule: Q01DX Z (ip), vehicle: alkali diluted with saline): 115 % of control
- T/C (dose: 469.0 mg/kg/injection, schedule: Q01DX Z (ip), vehicle: other): 91 % of control
- T/C (dose: 1875.0 mg/kg/injection, schedule: Q01DX Z (ip), vehicle: alkali diluted with saline): 121 % of control
- T/C (dose: 3750.0 mg/kg/injection, schedule: Q01DX Z (ip), vehicle: alkali diluted with saline): 111 % of control

Structure (SMILES): Nc1nc(=S)c2[nH]cnc2[nH]1
- T/C (dose: 0.25 mg/kg/injection, schedule: Q01DX Z (ip), vehicle: carboxymethylcellulose (CMC)): 169 % of control
- T/C (dose: 1.0 mg/kg/injection, schedule: Q01DX Z (ip), vehicle: carboxymethylcellulose (CMC)): 91 % of control
- T/C (dose: 1.25 mg/kg/injection, schedule: Q01DX010 (ip), vehicle: other): 150 % of control
- T/C (dose: 2.5 mg/kg/injection, schedule: Q01DX010 (ip), vehicle: other): 110 % of control and 113 % of control
- T/C (dose: 5.0 mg/kg/injection, schedule: Q01DX010 (ip), vehicle: other): 110 % of control
- T/C (dose: 31.2 micrograms/kg/injection, schedule: Q01DX Z (ip), vehicle: carboxymethylcellulose (CMC)): 100 % of control
- T/C (dose: 62.5 micrograms/kg/injection, schedule: Q01DX Z (ip), vehicle: carboxymethylcellulose (CMC)): 103 % of control
- T/C (dose: 250.0 micrograms/kg/injection, schedule: Q01DX Z (ip), vehicle: carboxymethylcellulose (CMC)): 155 % of control

Structure (SMILES): O=C(O)CCCc1ccc(N(CCCl)CCCl)cc1
- T/C (dose: 0.8 mg/kg/injection, schedule: Q01DX Z (ip), vehicle: carboxymethylcellulose (CMC)): 90 % of control
- T/C (dose: 1.6 mg/kg/injection, schedule: Q01DX Z (ip), vehicle: carboxymethylcellulose (CMC)): 92 % of control
- T/C [8]: 102 % of control
- T/C (dose: 3.13 mg/kg/injection, schedule: Q01DX010 (ip), vehicle: saline): 105 % of control and 120 % of control
- T/C (dose: 6.2 mg/kg/injection, schedule: Q01DX Z (ip), vehicle: carboxymethylcellulose (CMC)): 113 % of control
- T/C [5]: 105 % of control and 115 % of control
- T/C [3]: 86 % of control
- T/C [4]: 107 % of control
- T/C [9]: 114 % of control
- T/C (dose: 50.0 mg/kg/injection, schedule: Q01DX Z (ip), vehicle: carboxymethylcellulose (CMC)): 102 % of control

Structure (SMILES): O=C(Nc1ccc(C2=NCCN2)cc1)c1ccc(C(=O)Nc2ccc(C3=NCCN3)cc2)c([N+](=O)[O-])c1
- T/C (dose: 6.0 mg/kg/injection, schedule: Q01DX010 (ip), vehicle: saline): 260 % of control and 288 % of control
- T/C (dose: 8.0 mg/kg/injection, schedule: Q01DX010 (ip), vehicle: saline): 285 % of control and 311 % of control
- T/C (dose: 12.0 mg/kg/injection, schedule: Q01DX010 (ip), vehicle: saline): 166 % of control and 250 % of control
- T/C (dose: 18.0 mg/kg/injection, schedule: Q01DX010 (ip), vehicle: saline): 120 % of control and 122 % of control
